Here are results for 11 molecules from patent US12528815B2, “5-amino-8-(4-pyridyl)-[1,2,4]triazolo[4,3-c]pyrimidin-3-one compounds for use against cancer” (Nxera Pharma UK Limited, priority 2020, dated 2026).

The target in experiment [1] is T1, human adenosine A1 receptor (Homo sapiens, UniProt P30542).
T1 construct: expressed in transfected cells; host or cells: HEK293 cells infected with BacMam (the same paragraph also labels the preparation CHO-hA1)
T1 sequence (P30542 1-326): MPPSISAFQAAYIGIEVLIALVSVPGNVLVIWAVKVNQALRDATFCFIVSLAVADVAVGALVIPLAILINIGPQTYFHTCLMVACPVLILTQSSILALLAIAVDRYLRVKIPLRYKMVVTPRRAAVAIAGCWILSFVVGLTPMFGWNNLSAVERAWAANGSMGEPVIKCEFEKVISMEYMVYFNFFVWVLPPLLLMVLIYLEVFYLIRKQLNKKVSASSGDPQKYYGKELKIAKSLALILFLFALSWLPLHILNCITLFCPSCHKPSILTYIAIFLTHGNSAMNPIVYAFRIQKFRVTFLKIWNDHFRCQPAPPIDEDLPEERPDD
Nature of the experiment: Inhibition binding assay, human adenosine A1 receptor membranes, [3H]DPCPX. As to conditions: 1 nM [3H]DPCPX, 25° C., 1 h; IC50 converted to Ki with Cheng-Prusoff; read-out: A1 pKi (converted). A digest of the protocol: (§1)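 Membranes from BacMam-infected HEK293 cells (0.2 μg A2A, 1.4 μg A1) incubated 1 h at 25° C with test compound and 1 nM [3H]ZM241385 (A2A; 50 mM Tris-HCl pH 7.4) or [3H]DPCPX (A1; plus 100 mM NaCl, 10 mM MgCl2). Nonspecific: 1 μM CGS15943 or DPCPX. Filtration, scintillation; IC50 converted to Ki via Cheng-Prusoff.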

In a further experiment the target is T2, human CB1 receptor (Homo sapiens, UniProt P21554).
T2 construct: expressed in transfected cells; host or cells: CHO cells
T2 sequence (P21554 whole entry): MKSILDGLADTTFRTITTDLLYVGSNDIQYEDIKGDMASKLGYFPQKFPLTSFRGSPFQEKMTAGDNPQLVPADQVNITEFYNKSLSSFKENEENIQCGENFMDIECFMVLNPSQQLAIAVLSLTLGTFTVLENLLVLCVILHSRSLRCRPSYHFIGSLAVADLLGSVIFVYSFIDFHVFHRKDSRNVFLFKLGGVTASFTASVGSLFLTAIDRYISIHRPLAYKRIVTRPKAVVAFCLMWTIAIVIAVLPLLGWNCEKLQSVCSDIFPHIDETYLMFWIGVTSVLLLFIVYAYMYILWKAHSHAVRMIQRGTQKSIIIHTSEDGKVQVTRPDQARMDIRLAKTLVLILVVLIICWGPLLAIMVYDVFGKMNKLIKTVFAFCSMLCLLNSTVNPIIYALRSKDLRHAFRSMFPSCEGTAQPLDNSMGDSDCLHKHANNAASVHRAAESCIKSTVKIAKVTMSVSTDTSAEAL
The experiment is described as follows: CB1 receptor antagonism, agonist-induced cAMP modulation (HTRF) in transfected CHO cells. The class given is cell-based. As to conditions: read-out: Antag IC50.

Experiment [2] has as its target T3, human adenosine A2A receptor (Homo sapiens, UniProt P29274).
T3 construct: expressed in transfected cells; host or cells: HEK293 cells infected with BacMam
The experiment is described as follows: Inhibition binding assay, human adenosine A2A receptor membranes, [3H]ZM241385. As to conditions: 1 nM [3H]ZM241385, HEK293-hA2A membranes, 25° C., 1 h; IC50 converted to Ki with Cheng-Prusoff; read-out: A2A pKi (converted). In a few lines: as §1

Experiment [3] addresses T4, human CB-1 cannabinoid receptor (Homo sapiens, UniProt P21554).
T4 construct: expressed in transfected cells; host or cells: CHO cells
Nature of the experiment: CB1 receptor radioligand binding assay, [3H]CP 55940, transfected CHO cell membranes. As to conditions: 0.5 nM [3H]CP 55940, CHO membrane homogenates, 120 min at 37° C. The method, then: Nonspecific binding is determined in the presence of 10 μM WIN 55212-2.
Following incubation, the samples are filtered rapidly under vacuum through glass fiber filters (GF/B, Packard) presoaked with 0.3% PEI and rinsed several times with an ice-cold buffer containing 50 mM Tris-HCl (pH 7.4) and 0.5% BSA using a 96-sample cell harvester (Unifilter, Packard). The filters are dried then counted for radioactivity in a scintillation counter (Topcount, Packard) using a scintillation cocktail (Microscint 0, Packard).
The standard reference compound is CP 55940 which is tested in each experiment at several concentrations to obtain a competition curve from which its IC50 is calculated.

SMILES strings stand for the structures. pIC50, pKi: −log10 of the molar value. Where only a bound is given, the exact number is not on record here.

T4 sequence (P21554 whole entry): as above
T3 sequence (P29274 whole entry): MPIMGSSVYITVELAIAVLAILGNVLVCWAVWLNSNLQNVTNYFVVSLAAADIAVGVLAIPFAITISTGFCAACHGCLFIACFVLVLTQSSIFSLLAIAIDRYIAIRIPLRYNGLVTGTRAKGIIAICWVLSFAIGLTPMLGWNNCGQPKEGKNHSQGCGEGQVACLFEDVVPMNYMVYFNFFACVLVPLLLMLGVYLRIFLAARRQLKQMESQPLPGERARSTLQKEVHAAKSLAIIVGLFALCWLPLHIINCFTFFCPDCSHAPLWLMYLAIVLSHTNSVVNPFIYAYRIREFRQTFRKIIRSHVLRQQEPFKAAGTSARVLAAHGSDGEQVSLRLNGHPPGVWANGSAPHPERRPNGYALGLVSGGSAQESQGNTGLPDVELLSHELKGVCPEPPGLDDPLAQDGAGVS

Usually pIC50 stands for −log10 of the IC50, conventionally taken in molar units. In general, pKi refers to −log10 of the Ki, conventionally taken in molar units. Regarding `Cc1cc(-c2c(-c3ccccc3)nc(N)n3c(=O)n(CC45C6C7C4C4C5C6C74F)nc23)cc(CO)n1` (centres unmarked) [Example 2-60, 5-amino-2-[(4-fluorocuban-1-yl)methyl]-8-[2-(hydroxymethyl)-6-methyl-4-pyridyl]-7-phenyl-[1,2,4]triazolo[4,3-c]pyrimidin-3-one], the Ki in experiment [1] was 0.2 µM; in experiment [2], 0.00794 µM. For the same molecule, the pIC50 at human CB1 receptor was 5.62. The negative-log Ki (pKi) in experiment [3] is 4.84.

As to `Cc1cc(-c2c(-c3ccccc3)nc(N)n3c(=O)n(CCOC(F)(F)F)nc23)cc(C)n1` [Example 2-30, 5-amino-8-(2,6-dimethyl-4-pyridyl)-7-phenyl-2-[2-(trifluoromethoxy)ethyl]-[1,2,4]triazolo[4,3-c]pyrimidin-3-one], the values for the Ki in experiment [1] and in experiment [2] were 0.251 µM and 0.00251 µM, respectively. Also, the pIC50 at human CB1 receptor is 4.71. In addition, in experiment [3], the pKi was 4.58.

Take `Cc1cc(-c2c(-c3ccccc3)nc(N)n3c(=O)n(C[C@@H]4COCCN4Cc4ccccc4)nc23)cc(C)n1` [Example 1-101, 5-amino-2-[[(3R)-4-benzylmorpholin-3-yl]methyl]-8-(2,6-dimethyl-4-pyridyl)-7-phenyl-[1,2,4]triazolo[4,3-c]pyrimidin-3-one]: the Ki is 0.01 µM in experiment [1] and 0.000631 µM in experiment [2]. For the same molecule, the pIC50 on human CB1 receptor was 5.57. The molecule also showed a pKi in experiment [3] of 5.40.

As to `Cc1cc(-c2c(-c3ccc(F)cn3)nc(N)n3c(=O)n(CCC(F)(F)F)nc23)cc(C)n1` [Example 2-40, 5-amino-8-(2,6-dimethyl-4-pyridyl)-7-(5-fluoro-2-pyridyl)-2-(3,3,3-trifluoropropyl)-[1,2,4]triazolo[4,3-c]pyrimidin-3-one], the results for the Ki in experiment [1] and in experiment [2] were greater than 3.16 µM and 0.0398 µM, respectively. For the same molecule, the pIC50 at human CB1 receptor is less than 4.00. This molecule also had a negative-log Ki (pKi) in experiment [3] of 4.12.

In the case of `COc1ncccc1Cn1nc2c(-c3cc(C)nc(CO)c3)c(-c3ccccc3)nc(N)n2c1=O` [Example 1-57, 5-amino-8-[2-(hydroxymethyl)-6-methyl-4-pyridyl]-2-[(2-methoxy-3-pyridyl)methyl]-7-phenyl-[1,2,4]triazolo[4,3-c]pyrimidin-3-one], the Ki was 0.126 µM in experiment [1] and 0.000631 µM in experiment [2]. Further, on human CB1 receptor, the negative-log IC50 (pIC50) is less than 4.00. In experiment [3], this molecule gave a negative logarithm of the Ki (pKi) of 4.20.

Turning to `Cc1cc(-c2c(-c3ccccc3)nc(N)n3c(=O)n(Cc4ccc(F)cn4)nc23)cc(N2CCC2)n1` [Example 1-75, 5-amino-8-[2-(azetidin-1-yl)-6-methyl-4-pyridyl]-2-[(5-fluoro-2-pyridyl)methyl]-7-phenyl-[1,2,4]triazolo[4,3-c]pyrimidin-3-one], the Ki in experiment [1] was 0.126 µM; in experiment [2] it was 0.00316 µM. For the same molecule, on human CB1 receptor, the pIC50 was 4.75. In experiment [3], this molecule showed a negative-log Ki (pKi) of 4.41.

For `Nc1nc(Cn2nc3c(-c4cc(Cl)nc(CO)c4)c(-c4ccccc4)nc(N)n3c2=O)ccc1F` [Example 1-70, 5-amino-2-[(6-amino-5-fluoro-2-pyridyl)methyl]-8-[2-chloro-6-(hydroxymethyl)-4-pyridyl]-7-phenyl-[1,2,4]triazolo[4,3-c]pyrimidin-3-one], the figures for the Ki in experiment [1] and in experiment [2] were 0.0501 µM and 0.000316 µM, respectively. Also, at human CB1 receptor, the negative logarithm of the IC50 (pIC50) is less than 4.00. The molecule further gave a pKi in experiment [3] of 4.21.

Regarding `Cc1cc(-c2c(-c3ccccc3)nc(N)n3c(=O)n(CC4CCC(F)(F)C4)nc23)cc(C)n1` (centres unmarked) [Example 2-26, 5-amino-2-[(3,3-difluorocyclopentyl)methyl]-8-(2,6-dimethyl-4-pyridyl)-7-phenyl-[1,2,4]triazolo[4,3-c]pyrimidin-3-one], the values for the Ki in experiment [1] and in experiment [2] were 0.1 µM and 0.000398 µM, respectively. At human CB1 receptor, the negative logarithm of the IC50 (pIC50) was 5.46. The molecule further showed a pKi in experiment [3] of 5.41.

For the molecule `COc1cc(-c2c(-c3ccccc3)nc(N)n3c(=O)n(Cc4ccc(F)c(N)n4)nc23)cc(CO)n1` [Example 1-64, 5-amino-2-[(6-amino-5-fluoro-2-pyridyl)methyl]-8-[2-(hydroxymethyl)-6-methoxy-4-pyridyl]-7-phenyl-[1,2,4]triazolo[4,3-c]pyrimidin-3-one], the figures for the Ki in experiment [1] and in experiment [2] were 0.158 µM and 0.000316 µM, respectively. Also, the pIC50 on human CB1 receptor is less than 4.00. For the same molecule, the pKi in experiment [3] was 4.63.

`Cc1cc(-c2c(-c3ccccc3)nc(N)n3c(=O)n(CC(C)C)nc23)cc(C)[n+]1[O-]` [Example 2-57, 5-amino-8-(2,6-dimethyl-1-oxido-pyridin-1-ium-4-yl)-2-isobutyl-7-phenyl-[1,2,4]triazolo[4,3-c]pyrimidin-3-one]: the Ki is 0.251 µM in experiment [1] and 0.01 µM in experiment [2]. Moreover, the negative logarithm of the IC50 (pIC50) on human CB1 receptor is less than 4.00. Besides, in experiment [3], the pKi was 4.14.

In the case of `Cc1cc(-c2c(-c3ccc(F)cc3)nc(N)n3c(=O)n(Cc4cccnn4)nc23)cc(C)n1` [Example 1-41, 5-amino-8-(2,6-dimethyl-4-pyridyl)-7-(4-fluorophenyl)-2-(pyridazin-3-ylmethyl)-[1,2,4]triazolo[4,3-c]pyrimidin-3-one], the figures for the Ki in experiment [1] and in experiment [2] were 0.398 µM and 0.00251 µM, respectively. The negative logarithm of the IC50 (pIC50) on human CB1 receptor was 4.37. The pKi in experiment [3] is 4.34.
